Assay results from the kinase profiling compilation of Christmann-Franck et al. (2016).

Legend:
Experiment in all cases: KINOMEscan competition binding
Details in all cases: compound 10.0 µM
[1] = test system: ABL1 (human), P00519 [F317I]
[2] = test system: ABL1 (human), P00519 [F317L]
[3] = target: BMP2K (human) (UniProt Q9NSY1)
[4] = target: CAMKK2 (human) (UniProt Q96RR4)
[5] = target: CHEK1 (human) (UniProt O14757)
[6] = target: DAPK3 (human) (UniProt O43293)
[7] = target: DCLK3 (human) (UniProt Q9C098)
[8] = test system: EGFR (human), P00533 [A750P; 747-749 del]
[9] = target: FER (human) (UniProt P16591)
[10] = target: FES (human) (UniProt P07332)
[11] = test system: FLT3 (human), P36888 [D835H]
[12] = test system: FLT3 (human), P36888 [D835Y]
[13] = target: FRK (human) (UniProt P42685)
[14] = target: GAK (human) (UniProt O14976)
[15] = target: MERTK (human) (UniProt Q12866)
[16] = target: NEK5 (human) (UniProt Q6P3R8)
[17] = target: NEK9 (human) (UniProt Q8TD19)
[18] = target: PIP4K2B (human) (UniProt P78356)
[19] = target: PLK1 (human) (UniProt P53350)
[20] = target: PLK3 (human) (UniProt Q9H4B4)
[21] = target: PTK2 (human) (UniProt Q05397)
[22] = target: PTK2B (human) (UniProt Q14289)
[23] = target: RIOK1 (human) (UniProt Q9BRS2)
[24] = target: RPS6KA1 KD2 (human) (UniProt Q15418)
[25] = target: RPS6KA6 KD2 (human) (UniProt Q9UK32)
[26] = target: SIK1 (human) (UniProt P57059)
[27] = target: SIK2 (human) (UniProt Q9H0K1)
[28] = target: SLK (human) (UniProt Q9H2G2)
[29] = target: STK10 (human) (UniProt O94804)
[30] = target: STK33 (human) (UniProt Q9BYT3)
[31] = target: TNK2 (human) (UniProt Q07912)
[32] = target: TTK (human) (UniProt P33981)
[33] = target: TYK2 JH2 pseudokinase (human) (UniProt P29597)
[34] = target: ULK1 (human) (UniProt O75385)
[35] = target: ULK2 (human) (UniProt Q8IYT8)

RPS6KA6 KD2 (human), sequence (Q9UK32 whole entry, looked up): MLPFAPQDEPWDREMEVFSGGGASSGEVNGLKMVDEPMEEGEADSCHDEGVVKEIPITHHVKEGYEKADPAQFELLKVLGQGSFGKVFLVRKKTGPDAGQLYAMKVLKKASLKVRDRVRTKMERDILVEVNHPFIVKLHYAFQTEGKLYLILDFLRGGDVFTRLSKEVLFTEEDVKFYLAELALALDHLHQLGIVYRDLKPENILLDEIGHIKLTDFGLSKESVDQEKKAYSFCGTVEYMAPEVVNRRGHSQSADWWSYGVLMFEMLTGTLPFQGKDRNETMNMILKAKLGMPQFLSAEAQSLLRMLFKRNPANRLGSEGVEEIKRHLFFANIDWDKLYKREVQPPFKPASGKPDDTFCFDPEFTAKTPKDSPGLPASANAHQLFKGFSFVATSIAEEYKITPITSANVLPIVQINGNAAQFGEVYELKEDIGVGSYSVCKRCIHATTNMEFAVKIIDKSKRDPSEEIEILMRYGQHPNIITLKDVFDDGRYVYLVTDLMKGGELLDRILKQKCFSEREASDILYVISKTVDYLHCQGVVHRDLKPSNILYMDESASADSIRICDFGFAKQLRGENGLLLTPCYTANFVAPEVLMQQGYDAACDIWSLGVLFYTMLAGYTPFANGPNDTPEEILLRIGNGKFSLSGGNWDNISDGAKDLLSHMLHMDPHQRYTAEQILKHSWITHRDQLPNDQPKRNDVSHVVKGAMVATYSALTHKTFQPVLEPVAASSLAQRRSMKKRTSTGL
PLK3 (human), sequence (Q9H4B4 whole entry, looked up): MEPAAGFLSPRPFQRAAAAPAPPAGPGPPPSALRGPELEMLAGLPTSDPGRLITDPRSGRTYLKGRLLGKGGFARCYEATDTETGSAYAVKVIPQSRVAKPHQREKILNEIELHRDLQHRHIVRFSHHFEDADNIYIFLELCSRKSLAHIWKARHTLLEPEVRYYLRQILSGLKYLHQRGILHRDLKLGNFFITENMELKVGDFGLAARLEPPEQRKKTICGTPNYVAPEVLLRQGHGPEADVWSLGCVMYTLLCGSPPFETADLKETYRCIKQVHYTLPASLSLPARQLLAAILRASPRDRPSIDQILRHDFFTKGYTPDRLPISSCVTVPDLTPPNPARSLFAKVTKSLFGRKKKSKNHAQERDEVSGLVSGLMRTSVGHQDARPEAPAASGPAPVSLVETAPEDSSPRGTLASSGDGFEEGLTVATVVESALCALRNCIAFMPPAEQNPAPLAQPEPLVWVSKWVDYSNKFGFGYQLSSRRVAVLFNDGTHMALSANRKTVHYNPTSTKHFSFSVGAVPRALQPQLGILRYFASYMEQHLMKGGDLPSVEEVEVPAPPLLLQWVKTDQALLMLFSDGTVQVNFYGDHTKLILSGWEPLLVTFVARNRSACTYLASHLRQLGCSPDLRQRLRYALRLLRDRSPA
SIK1 (human), sequence (P57059 whole entry, looked up): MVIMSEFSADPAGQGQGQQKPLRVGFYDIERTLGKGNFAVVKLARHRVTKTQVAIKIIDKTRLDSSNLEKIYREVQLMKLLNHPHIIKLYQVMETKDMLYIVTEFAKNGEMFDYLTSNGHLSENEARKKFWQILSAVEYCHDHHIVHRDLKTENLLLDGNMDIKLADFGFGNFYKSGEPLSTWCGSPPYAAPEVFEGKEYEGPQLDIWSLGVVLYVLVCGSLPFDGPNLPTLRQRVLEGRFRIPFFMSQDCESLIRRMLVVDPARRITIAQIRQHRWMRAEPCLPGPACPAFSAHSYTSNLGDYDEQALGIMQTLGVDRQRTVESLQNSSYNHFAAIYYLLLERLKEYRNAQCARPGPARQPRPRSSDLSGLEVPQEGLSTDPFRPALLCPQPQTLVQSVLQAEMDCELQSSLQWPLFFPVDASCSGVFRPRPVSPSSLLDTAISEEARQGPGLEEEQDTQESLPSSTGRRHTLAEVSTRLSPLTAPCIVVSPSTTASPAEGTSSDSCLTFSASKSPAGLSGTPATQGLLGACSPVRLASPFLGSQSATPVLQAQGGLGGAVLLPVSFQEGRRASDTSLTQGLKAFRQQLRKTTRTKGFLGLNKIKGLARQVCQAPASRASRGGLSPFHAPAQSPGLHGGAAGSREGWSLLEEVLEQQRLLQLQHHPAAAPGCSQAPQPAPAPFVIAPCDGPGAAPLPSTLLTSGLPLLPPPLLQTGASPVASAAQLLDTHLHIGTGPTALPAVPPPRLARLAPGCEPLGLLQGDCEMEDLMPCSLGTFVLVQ
RPS6KA1 KD2 (human), sequence (Q15418 whole entry, looked up): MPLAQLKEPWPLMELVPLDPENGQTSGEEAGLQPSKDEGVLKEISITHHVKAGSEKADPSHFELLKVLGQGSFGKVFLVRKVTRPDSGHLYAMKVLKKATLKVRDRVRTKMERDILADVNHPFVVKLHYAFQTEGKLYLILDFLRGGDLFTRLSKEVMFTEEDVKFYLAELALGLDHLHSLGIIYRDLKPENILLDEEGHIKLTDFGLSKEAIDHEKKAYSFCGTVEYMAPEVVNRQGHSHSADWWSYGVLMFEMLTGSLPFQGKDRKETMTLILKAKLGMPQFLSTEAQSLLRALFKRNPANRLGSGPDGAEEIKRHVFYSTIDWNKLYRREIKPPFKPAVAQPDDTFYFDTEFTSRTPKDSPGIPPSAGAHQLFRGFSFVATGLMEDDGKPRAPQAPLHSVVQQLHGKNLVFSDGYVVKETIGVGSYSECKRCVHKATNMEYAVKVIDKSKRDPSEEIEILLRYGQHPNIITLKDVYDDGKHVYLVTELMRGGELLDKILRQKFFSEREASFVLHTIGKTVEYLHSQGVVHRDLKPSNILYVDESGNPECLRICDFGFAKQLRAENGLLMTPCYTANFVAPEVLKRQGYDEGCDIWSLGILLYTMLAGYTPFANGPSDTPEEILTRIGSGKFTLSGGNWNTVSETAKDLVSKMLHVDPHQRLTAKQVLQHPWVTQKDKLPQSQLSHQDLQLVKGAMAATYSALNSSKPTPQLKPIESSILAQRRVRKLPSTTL
ULK1 (human), sequence (O75385 whole entry, looked up): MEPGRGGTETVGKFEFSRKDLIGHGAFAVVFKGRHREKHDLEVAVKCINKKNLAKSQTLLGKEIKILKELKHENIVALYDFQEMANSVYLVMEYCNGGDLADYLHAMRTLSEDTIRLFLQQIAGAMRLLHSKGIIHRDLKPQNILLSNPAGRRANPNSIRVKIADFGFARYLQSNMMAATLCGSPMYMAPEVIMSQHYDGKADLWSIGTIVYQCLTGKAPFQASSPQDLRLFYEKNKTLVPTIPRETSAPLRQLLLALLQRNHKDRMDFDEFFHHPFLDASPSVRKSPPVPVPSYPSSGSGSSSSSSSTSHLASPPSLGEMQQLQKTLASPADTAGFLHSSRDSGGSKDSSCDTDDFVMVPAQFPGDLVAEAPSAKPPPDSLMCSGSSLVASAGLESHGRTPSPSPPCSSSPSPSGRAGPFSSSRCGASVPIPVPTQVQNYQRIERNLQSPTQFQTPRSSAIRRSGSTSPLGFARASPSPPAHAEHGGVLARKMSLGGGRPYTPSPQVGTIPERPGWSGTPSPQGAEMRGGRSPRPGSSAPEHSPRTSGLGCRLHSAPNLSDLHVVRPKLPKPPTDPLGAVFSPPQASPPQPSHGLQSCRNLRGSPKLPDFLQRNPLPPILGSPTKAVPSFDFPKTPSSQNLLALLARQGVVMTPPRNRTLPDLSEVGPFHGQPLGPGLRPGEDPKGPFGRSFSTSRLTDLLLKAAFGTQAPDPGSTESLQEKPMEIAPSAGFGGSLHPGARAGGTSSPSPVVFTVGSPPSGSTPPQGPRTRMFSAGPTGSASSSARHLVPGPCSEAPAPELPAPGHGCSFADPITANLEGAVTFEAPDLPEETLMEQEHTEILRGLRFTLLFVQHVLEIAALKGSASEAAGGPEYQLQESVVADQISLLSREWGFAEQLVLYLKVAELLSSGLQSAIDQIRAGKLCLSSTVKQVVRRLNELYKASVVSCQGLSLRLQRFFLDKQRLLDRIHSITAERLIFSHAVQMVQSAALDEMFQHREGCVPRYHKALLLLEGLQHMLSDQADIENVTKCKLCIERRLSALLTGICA
CHEK1 (human), sequence (O14757 whole entry, looked up): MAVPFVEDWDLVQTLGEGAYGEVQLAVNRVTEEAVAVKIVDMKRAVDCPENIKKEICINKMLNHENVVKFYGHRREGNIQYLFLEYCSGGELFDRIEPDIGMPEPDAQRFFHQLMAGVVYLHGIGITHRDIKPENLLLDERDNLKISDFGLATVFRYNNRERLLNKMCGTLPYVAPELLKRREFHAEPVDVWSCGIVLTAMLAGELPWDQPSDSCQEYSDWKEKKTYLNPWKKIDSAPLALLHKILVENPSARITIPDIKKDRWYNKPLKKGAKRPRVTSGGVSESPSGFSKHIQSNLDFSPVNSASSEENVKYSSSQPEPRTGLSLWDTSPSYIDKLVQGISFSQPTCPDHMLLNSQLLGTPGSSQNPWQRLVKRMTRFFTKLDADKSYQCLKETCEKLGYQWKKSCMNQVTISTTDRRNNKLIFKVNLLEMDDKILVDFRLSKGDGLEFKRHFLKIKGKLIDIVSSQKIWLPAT
PIP4K2B (human), sequence (P78356 whole entry, looked up): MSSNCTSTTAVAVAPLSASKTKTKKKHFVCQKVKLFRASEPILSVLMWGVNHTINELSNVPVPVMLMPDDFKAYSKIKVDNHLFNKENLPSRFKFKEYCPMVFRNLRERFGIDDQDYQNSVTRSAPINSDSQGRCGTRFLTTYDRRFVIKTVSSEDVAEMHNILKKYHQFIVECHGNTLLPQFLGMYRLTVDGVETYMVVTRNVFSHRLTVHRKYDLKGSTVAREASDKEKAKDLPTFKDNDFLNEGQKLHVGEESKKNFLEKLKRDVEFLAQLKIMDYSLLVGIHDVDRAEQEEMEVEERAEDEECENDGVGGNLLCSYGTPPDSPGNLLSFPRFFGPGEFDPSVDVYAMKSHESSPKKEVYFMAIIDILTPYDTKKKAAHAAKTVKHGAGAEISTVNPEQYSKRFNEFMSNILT

## COc1cc(N2CCN(C)CC2)ccc1Nc1ncc2c(n1)N(C1CCCC1)C(C)CC(=O)N2 (stereo not given)
[1]
  kinase still bound, per cent of control: 29%
[2]
  kinase still bound, per cent of control: 30%
[3]
  kinase still bound, per cent of control: 19%
[4]
  kinase still bound, per cent of control: 31%
[5]
  kinase still bound, per cent of control: 14%
[6]
  kinase still bound, per cent of control: 13%
[7]
  kinase still bound, per cent of control: 4%
[8]
  kinase still bound, per cent of control: 33%
[9]
  kinase still bound, per cent of control: 21%
[10]
  kinase still bound, per cent of control: 26%
[11]
  kinase still bound, per cent of control: 30%
[12]
  kinase still bound, per cent of control: 26%
[13]
  kinase still bound, per cent of control: 7%
[14]
  kinase still bound, per cent of control: 1%
[15]
  kinase still bound, per cent of control: 23%
[16]
  kinase still bound, per cent of control: 30%
[17]
  kinase still bound, per cent of control: 27%
[18]
  kinase still bound, per cent of control: 31%
[19]
  kinase still bound, per cent of control: 2.1%
[20]
  kinase still bound, per cent of control: 11%
[21]
  kinase still bound, per cent of control: 1.9%
[22]
  kinase still bound, per cent of control: 13%
[23]
  kinase still bound, per cent of control: 32%
[24]
  kinase still bound, per cent of control: 22%
[25]
  kinase still bound, per cent of control: 4.7%
[26]
  kinase still bound, per cent of control: 14%
[27]
  kinase still bound, per cent of control: 26%
[28]
  kinase still bound, per cent of control: 3.2%
[29]
  kinase still bound, per cent of control: 10%
[30]
  kinase still bound, per cent of control: 18%
[31]
  kinase still bound, per cent of control: 7.4%
[32]
  kinase still bound, per cent of control: 14%
[33]
  kinase still bound, per cent of control: 32%
[34]
  kinase still bound, per cent of control: 7.8%
[35]
  kinase still bound, per cent of control: 1.2%
